In patent publication EP0516978A1, “Enantiomers of substituted (aminophenyl)-heteroarylethylamines, a method for their preparation, and pharmaceutical compositions containing these compounds” (HOECHST AKTIENGESELLSCHAFT, priority 1991, dated 1992):

What was measured:
Mongolischen Gerbil = test: Neuroprotection after forebrain ischaemia in the gerbil (5-minute bilateral carotid artery occlusion); assay type: in vivo; settings: treated vs. control group; for Verhaltensscore (% Änderung): 5-step neurological score over 45 min after ischaemia; for Zellnekrosen (% Änderung): 5-step histopathological score, hippocampal CA₁ region, 7 days later
Excerpt: Anhand der nachfolgend beschriebenen Versuchsdurchführungen (K. Rudolphi et. al, J. Cereb. Blood Flow Metab., 7:74. 1987) ergibt sich, daß die unten aufgeführten Verbindungen in der Lage sind, zerebrale Nervenzellen gegen eine schwere ischämische Schädigung zu schützen.
Bei 20 männlichen Mongolischen Gerbils werden unter Halothan-Narkose durch beidseitigen Verschluß der A. Carotis mittels Aneurysmaclips eine 5-minütige Ischämie des Vorderhirns mit anschließender Rezirkulation erzeugt. Die Tiere werden 45 Minuten lang nach der Ischämie beobachtet und das Ausmaß der neurologischen Symptome mittels eines 5-stufigen Verhaltensscores bestimmt. 7 Tage später werden die Tiere unter Halothan-Narkose dekapitiert, die Gehirne in Carnoy-Lösung immersionsfixiert und das Ausmaß des Neuronenschadens in der CA₁-Region des Hippocampus mit Hilfe eines 5-stufigen histopathologischen Scores "blind" bestimmt. Die Prüfsubstanzen werden je einer Gruppe von 10 Gerbils intraperitoneal oder per os 15 Minuten vor der Ischämie verabreicht. Pro Testsubstanz wird eine ischämische Kontrollgruppe von ebenfalls 10 Tieren mit dem jeweiligen Lösungsmittel behandelt. Die Ergebnisse sind in Tabelle 6 als % Änderung des mittleren neurologsichen Verhaltensscores bzw. histopathologischen Scores (Summe der individuellen Scores/Anzahl der Tiere) der behandelten vs. Kontrollgruppe zusammengefaßt. Tabelle 1
Je höher der Verhaltensscore (-% Änderungen), desto besser ist die Erholung der Tiere nach Ischämie.

NMRI-Mäusen = test: CNS tolerability in the healthy animal (mouse), behavioural observation; assay type: in vivo, Maus; settings: for Symptome: phenomena observed 3 hours after application; for Dosis, ab der eine ZNS erregende Aktivität, die als unverträglich gilt, auftritt: mouse, i.p., dose from which the behaviour-altering CNS excitation is seen
Description: Adulten männlichen NMRI-Mäusen werden die zu untersuchenden Substanzen in Dosen von 0,1-100 mg/kg i.p. in einem Volumen von 10 ml/kg verabreicht. Pro Versuchsdosis werden drei Tiere eingesetzt, wobei eine Gruppe als Placebo nur mit dem Lösungsmittel behandelt (Kontrolle) mitgeführt wird.
Die Placebogruppe dient dabei zur zeitgleichen Verhaltensfeststellung, parallel zur Versuchsgruppe. Sofort nach der Applikation werden die Tiere in Dreiergruppen in Beobachtungskäfige gesetzt und drei Stunden lang am ersten Tag beobachtet. Anschließend werden die Tiere gefüttert, getränkt und weitere sechs Tage, jeweils nach 24 Stunden, für eine halbe Stunde beobachtet. Dabei ergaben sich folgende Befunde: Tabelle 2

[1] = 30 mg/kg ip. 15 min before 5-min forebrain ischaemia
[2] = 30 mg/kg ip. 15 min before ischaemia

Row | Structure (SMILES) | Verhaltensscore (% Änderung) (Mongolischen Gerbil; [1]) | Zellnekrosen (% Änderung) (Mongolischen Gerbil; [2]) | Symptome (NMRI-Mäusen; dose 0,1-3 mg/kg i.p.) | Symptome (NMRI-Mäusen; dose 1,0-3,0 mg/kg i.p.) | Symptome (NMRI-Mäusen; dose 10-100 mg/kg i.p.) | Dosis, ab der eine ZNS erregende Aktivität, die als unverträglich gilt, auftritt (NMRI-Mäusen) | Verhaltensscore (% Änderung) (Mongolischen Gerbil; 60 mg/kg ip. 15 min before 5-min forebrain ischaemia) | Zellnekrosen (% Änderung) (Mongolischen Gerbil; 60 mg/kg ip. 15 min before ischaemia) | Symptome (NMRI-Mäusen; dose 0,01-0,3 mg/kg i.p.) | Dosis, ab der eine ZNS erregende Aktivität, die als unverträglich gilt, auftritt (NMRI-Mäusen; listed as (-)-Form) | Symptome (NMRI-Mäusen; dose 0,1-0,3 mg/kg i.p.) | Dosis, ab der eine ZNS erregende Aktivität, die als unverträglich gilt, auftritt (NMRI-Mäusen; listed as (+)-Form)
1 | CNC(Cc1ccccc1N)c1sccc1C (racemic) [Razemisch II, 2-Amino-N-methyl-α-(3-methyl-2-thienyl)benzylethanamin] | -15 % Änderung | -75 % Änderung | vermehrter Putztrieb | Unruhe, Erregung, vermehrter Putztrieb | Taumeln, vermehrter Putztrieb, Unruhe, Erregung | ≥ 10 mg/kg i. p. |  |  |  |  |  | 
2 | CNC(Cc1ccccc1N)c1sccc1C (single isomer, unassigned; (-)) [(-)II, 2-Amino-N-methyl-α-(3-methyl-2-thienyl)benzylethanamin] | -32 % Änderung |  |  | o. B. | Unruhe, vermehrter Putztrieb |  | -75 % Änderung | -23 % Änderung | o. B. | ≥ 100 mg/kg i. p. |  | 
3 | CNC(Cc1ccccc1N)c1sccc1C (single isomer, unassigned; (+)) [(+)II, 2-Amino-N-methyl-α-(3-methyl-2-thienyl)benzylethanamin] | -51 % Änderung | -90 % Änderung |  | kurzandauernde Erregung | vermehrter Putztrieb, Unruhe, Erregung, Taumeln |  |  |  |  |  | o. B. | ≥ 10 mg/kg i. p.
